Literature values, collected in patent US8155888B2, “Method and apparatus for assessing polypeptide aggregation” (Cambridge University Technical Services Ltd., priority 2003, dated 2012).
Where two headings read alike, the source gives them in different places. Where no end group is shown, it is not given here.

Assays:
[1] = not given; remark: listed apart in the source
[2] = not given; remark: listed apart in the source
[3] = mutant versus wild type; growth phase only; from literature data
[4] = Table 1, neutral pH, partition coefficients from water to octanol
[5] = Table 5, neutral pH, partition coefficients from water to octanol
[6] = Table 1, normalised from 0 (high) to 1 (low)
[7] = Table 5, normalized from 0 (high) to 1 (low)

Row | Compound | hydrophobicity [4] [kcal/mol] | hydrophobicity [5] [kcal/mol] | β-sheet propensity [1, 6] | β-sheet propensity [1, 7] | charge ([2]; Table 1, neutral pH) | charge ([2]; Table 5, neutral pH) | observed ln(νmut/νwt) [3] | further results
1 | C[C@H](N)C(=O)O [Ala (A)] | -0.0932 | -0.39 | 0.47 | 0.47 | 0 | 0 | – | –
2 | NC(=O)C[C@H](N)C(=O)O [Asn (N)] | 0.457 | 1.91 | 0.40 | 0.40 | 0 | 0 | – | –
3 | N[C@@H](CC(=O)O)C(=O)O [Asp (D), aspartic acid] | 0.911 | 3.81 | 0.72 | 0.72 | −1 | −1 | – | –
4 | N[C@@H](CS)C(=O)O [Cys (C)] | -0.0598 | -0.25 | 0.25 | 0.25 | 0 | 0 | – | –
5 | NC(=O)CC[C@H](N)C(=O)O [Gln (Q)] | 0.311 | 1.30 | 0.34 | 0.34 | 0 | 0 | – | –
6 | N[C@@H](CCC(=O)O)C(=O)O [Glu (E), glutamic acid] | – | – | 0.35 | 0.35 | −1 | −1 | – | –
7 | NCC(=O)O [Gly (G), glycine] | 0 | 0.00 | 0.60 | 0.60 | 0 | 0 | – | –
8 | N[C@@H](Cc1c[nH]cn1)C(=O)O [His (H), histidine] | 0.153 | 0.64 | 0.37 | 0.37 | 0 | 0 | – | hydrophobicity (Table 1, value in brackets, pH lower than 6.0, histidine positively charged): 0.686 kcal/mol; hydrophobicity (Table 5, value in brackets, pH lower than 6.0, histidine positively charged): 2.87 kcal/mol; charge ([2]; Table 1, value in brackets, pH lower than 6.0): +1; charge ([2]; Table 5, value in brackets, pH lower than 6.0): +1
9 | CC[C@H](C)[C@H](N)C(=O)O [Ile (I)] | -0.435 | -1.82 | 0.10 | 0.10 | 0 | 0 | – | –
10 | CSCC[C@H](N)C(=O)O [Met (M)] | -0.229 | -0.96 | 0.26 | 0.26 | 0 | 0 | – | –
11 | N[C@@H](Cc1ccccc1)C(=O)O [Phe (F), phenylalanine] | -0.543 | -2.27 | 0.13 | 0.13 | 0 | 0 | – | –
12 | O=C(O)[C@@H]1CCCN1 [Pro (P), proline] | -0.237 | -0.99 | – | – | 0 | 0 | – | –
13 | N[C@@H](CO)C(=O)O [Ser (S), serine] | 0.296 | 1.24 | 0.30 | 0.30 | 0 | 0 | – | –
14 | C[C@@H](O)[C@H](N)C(=O)O [Thr (T)] | 0.239 | 1.00 | 0.06 | 0.06 | 0 | 0 | – | –
15 | N[C@@H](Cc1ccc(O)cc1)C(=O)O [Tyr (Y)] | -0.351 | -1.47 | 0.11 | 0.11 | 0 | 0 | – | –
16 | CC(C)[C@H](N)C(=O)O [Val (V)] | – | -1.30 | 0.13 | 0.13 | 0 | 0 | – | –
17 | A21G: A21G mutation of Aβ (amyloid-β peptide) | – | – | – | – | – | – | −0.07 | –
18 | D23N: D23N mutation of Aβ (amyloid-β peptide) | – | – | – | – | – | – | 3.97 | –
19 | E22G: E22G mutation of Aβ (amyloid-β peptide) | – | – | – | – | – | – | 2.03 | –
20 | E22K: E22K mutation of Aβ (amyloid-β peptide) | – | – | – | – | – | – | 0.92 | –
21 | E22Q: E22Q mutation of Aβ (amyloid-β peptide) | – | – | – | – | – | – | 2.92 | –
22 | F19T: F19T mutation of Aβ (amyloid-β peptide) | – | – | – | – | – | – | −2.48 | –
23 | F23A: single-point mutation F23A of amylin (KCNTATCATQRLANFLVHSSNNAGAILSSTNVGSNTY; ends and bridges not checked; cysteine pairing not given here; UniProt P10997 34-70, looked up, variant F23A) | – | – | – | – | – | – | −2.65 | –
24 | G24A: single-point mutation G24A of amylin (KCNTATCATQRLANFLVHSSNNFAAILSSTNVGSNTY; ends and bridges not checked; cysteine pairing not given here; UniProt P10997 34-70, looked up, variant G24A) | – | – | – | – | – | – | −0.03 | –
25 | I26A: single-point mutation I26A of amylin (KCNTATCATQRLANFLVHSSNNFGAALSSTNVGSNTY; ends and bridges not checked; cysteine pairing not given here; UniProt P10997 34-70, looked up, variant I26A) | – | – | – | – | – | – | −2.39 | –
26 | L27A: single-point mutation L27A of amylin (KCNTATCATQRLANFLVHSSNNFGAIASSTNVGSNTY; ends and bridges not checked; cysteine pairing not given here; UniProt P10997 34-70, looked up, variant L27A) | – | – | – | – | – | – | −0.93 | –
27 | N22A: single-point mutation N22A of amylin (KCNTATCATQRLANFLVHSSNAFGAILSSTNVGSNTY; ends and bridges not checked; cysteine pairing not given here; UniProt P10997 34-70, looked up, variant N22A) | – | – | – | – | – | – | 0.69 | –
28 | S20G: S20G mutation of amylin (KCNTATCATQRLANFLVHSGNNFGAILSSTNVGSNTY; ends and bridges not checked; cysteine pairing not given here; UniProt P10997 34-70, looked up, variant S20G) | – | – | – | – | – | – | 1.01 | –
